Test results published in patent US20230107941A1, “HEPATITIS B CAPSID ASSEMBLY MODULATORS” (Venatorx Pharmaceuticals, Inc., priority 2019, published 2023).

Key:
[1] = tested on: HBV; test: In vitro antiviral assay: anti-HBV replication in HepAD38 cells (extracellular HBV DNA by QPCR); assay type: cell-based, hepatitis B virus (genotype D, serotype ayw); conditions: Hepatitis B virus, HePAD38, 168 h, 7 days incubation, extracellular HBV DNA by QPCR, read-out: Anti-HBV EC50
Procedure, shortened: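 HepG2-derived HepAD38 cells (HBV genotype D, ayw, tet-repressible CMV) induced by tetracycline withdrawal, treated 7 days at 37 °C with compound (1 μM to 10 pM, 10-fold steps). Supernatant HBV DNA quantified by QPCR against standard curve, percent of DMSO control; EC50 by 4-parameter fit; entecavir positive control.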

[2] = In vitro cytotoxicity assay (MTT cell viability) in HepG2 cells; assay type: cell-based, human; conditions: human
Procedure, shortened: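 CC50 was derived by 4-parameter fit of viability relative to vehicle controls, measured as MTT formazan absorbance at 492 nm after 3–4 h of reagent and DMSO solubilization. Before that, HepG2 cells seeded overnight at 20,000/well were incubated 7 days at 37°C with compound from 30 μM down to 1.0 nM in half-log steps.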

SMILES | EC50 [1] | CC50 at 7 days [2]
Cc1cc(NC(=O)c2c(C)c(C(=O)C(=O)NC34CC(O)(C3)C4)n(C)c2C)ccc1F [Example 82, N-(4-fluoro-3-methylphenyl)-5-(2-((3-hydroxybicyclo[1.1.1]pentan-1-yl)amino)-2-oxoacetyl)-1,2,4-trimethyl-1H-pyrrole-3-carboxamide] | < 50 nM | > 30000 nM
Cc1c(C(=O)Nc2ccc(F)c(C#N)c2)c(C)n(C)c1C(=O)C(=O)NC1(C)CC(O)C1 (centres unmarked) [Example 83, N-(3-cyano-4-fluorophenyl)-5-(2-((3-hydroxy-1-methylcyclobutyl)amino)-2-oxoacetyl)-1,2,4-trimethyl-1H-pyrrole-3-carboxamide] | < 50 nM | > 30000 nM
Cc1cc(NC(=O)c2c(C)c(C(=O)C(=O)NC3CCc4nnn(C)c4C3)n(C)c2C)ccc1F (centres unmarked) [Example 85, N-(4-fluoro-3-methylphenyl)-1,2,4-trimethyl-5-(2-((1-methyl-4,5,6,7-tetrahydro-1H-benzo[d][1,2,3]triazol-6-yl)amino)-2-oxoacetyl)-1H-pyrrole-3-carboxamide] | < 50 nM | > 30000 nM
CCc1c(C(=O)Nc2ccc(F)c(C)c2)c(C)n(C)c1C(=O)C(=O)N[C@H]1CC[C@@H](O)CC1 [Example 86, 4-ethyl-N-(4-fluoro-3-methylphenyl)-5-(2-(((1s,4s)-4-hydroxycyclohexyl)amino)-2-oxoacetyl)-1,2-dimethyl-1H-pyrrole-3-carboxamide] | < 50 nM | > 30000 nM
CCc1c(C(=O)Nc2ccc(F)c(C)c2)c(C)n(C)c1C(=O)C(=O)N[C@]1(C)C[C@H](O)C1 [Example 87, 4-ethyl-N-(4-fluoro-3-methylphenyl)-5-(2-(((1s,3s)-3-hydroxy-1-methylcyclobutyl)amino)-2-oxoacetyl)-1,2-dimethyl-1H-pyrrole-3-carboxamide] | < 50 nM | > 30000 nM
CCc1c(C(=O)Nc2ccc(F)c(C)c2)c(C)n(C)c1C(=O)C(=O)NCC(C)(C)O [Example 88, 4-ethyl-N-(4-fluoro-3-methylphenyl)-5-(2-((2-hydroxy-2-methylpropyl)amino)-2-oxoacetyl)-1,2-dimethyl-1H-pyrrole-3-carboxamide] | 500 to 1000 nM | > 30000 nM
CCc1c(C(=O)Nc2ccc(F)c(C)c2)c(C)n(C)c1C(=O)C(=O)N[C@H]1CC[C@@H](S(C)(=O)=O)CC1 [Example 89, 4-ethyl-N-(4-fluoro-3-methylphenyl)-1,2-dimethyl-5-(2-(((1s,4s)-4-(methylsulfonyl)cyclohexyl)amino)-2-oxoacetyl)-1H-pyrrole-3-carboxamide] | < 50 nM | > 30000 nM
CCc1c(C(=O)Nc2ccc(F)c(C)c2)c(C)n(C)c1C(=O)C(=O)N[C@H](C)C(F)(F)F [Example 90, (R)-4-ethyl-N-(4-fluoro-3-methylphenyl)-1,2-dimethyl-5-(2-oxo-2-((1,1,1-trifluoropropan-2-yl)amino)acetyl)-1H-pyrrole-3-carboxamide] | < 50 nM | 5000 to 30000 nM
CCc1c(C(=O)Nc2ccc(F)c(C)c2)c(C)n(C)c1C(=O)C(=O)NC1CCN(c2cccnn2)CC1 [Example 91, 4-ethyl-N-(4-fluoro-3-methylphenyl)-1,2-dimethyl-5-(2-oxo-2-((1-(pyridazin-3-yl)piperidin-4-yl)amino)acetyl)-1H-pyrrole-3-carboxamide] | 50 to 499 nM | > 30000 nM
Cc1cc(NC(=O)c2c(C(C)C)c(C(=O)C(=O)N[C@H]3CC[C@@H](O)CC3)n(C)c2C)ccc1F [Example 92, N-(4-fluoro-3-methylphenyl)-5-(2-(((1s,4s)-4-hydroxycyclohexyl)amino)-2-oxoacetyl)-4-isopropyl-1,2-dimethyl-1H-pyrrole-3-carboxamide] | 50 to 499 nM | > 30000 nM
Cc1cc(NC(=O)c2c(C(C)C)c(C(=O)C(=O)N[C@]3(C)C[C@H](O)C3)n(C)c2C)ccc1F [Example 93, N-(4-fluoro-3-methylphenyl)-5-(2-(((1s,3s)-3-hydroxy-1-methylcyclobutyl)amino)-2-oxoacetyl)-4-isopropyl-1,2-dimethyl-1H-pyrrole-3-carboxamide] | > 1000 nM | > 30000 nM
Cc1cc(NC(=O)c2c(C(C)C)c(C(=O)C(=O)NCC(C)(C)O)n(C)c2C)ccc1F [Example 94, N-(4-fluoro-3-methylphenyl)-5-(2-((2-hydroxy-2-methylpropyl)amino)-2-oxoacetyl)-4-isopropyl-1,2-dimethyl-1H-pyrrole-3-carboxamide] | 500 to 1000 nM | > 30000 nM
Cc1cc(NC(=O)c2c(C(C)C)c(C(=O)C(=O)N[C@H]3CC[C@@H](S(C)(=O)=O)CC3)n(C)c2C)ccc1F [Example 95, N-(4-fluoro-3-methylphenyl)-4-isopropyl-1,2-dimethyl-5-(2-(((1s,4s)-4-(methylsulfonyl)cyclohexyl)amino)-2-oxoacetyl)-1H-pyrrole-3-carboxamide] | > 1000 nM | > 30000 nM
Cc1cc(NC(=O)c2c(C(C)C)c(C(=O)C(=O)N[C@H](C)C(F)(F)F)n(C)c2C)ccc1F [Example 96, (R)-N-(4-fluoro-3-methylphenyl)-4-isopropyl-1,2-dimethyl-5-(2-oxo-2-((1,1,1-trifluoropropan-2-yl)amino)acetyl)-1H-pyrrole-3-carboxamide] | > 1000 nM | > 30000 nM
Cc1cc(NC(=O)c2c(C3CC3)c(C(=O)C(=O)N[C@H]3CC[C@@H](O)CC3)n(C)c2C)ccc1F [Example 97, 4-cyclopropyl-N-(4-fluoro-3-methylphenyl)-5-(2-(((1s,4s)-4-hydroxycyclohexyl)amino)-2-oxoacetyl)-1,2-dimethyl-1H-pyrrole-3-carboxamide] | 500 to 1000 nM | > 30000 nM
Cc1cc(NC(=O)c2c(C3CC3)c(C(=O)C(=O)N[C@]3(C)C[C@H](O)C3)n(C)c2C)ccc1F [Example 98, 4-cyclopropyl-N-(4-fluoro-3-methylphenyl)-5-(2-(((1s,3s)-3-hydroxy-1-methylcyclobutyl)amino)-2-oxoacetyl)-1,2-dimethyl-1H-pyrrole-3-carboxamide] | 50 to 499 nM | > 30000 nM
Cc1cc(NC(=O)c2c(C3CC3)c(C(=O)C(=O)NCC(C)(C)O)n(C)c2C)ccc1F [Example 99, 4-cyclopropyl-N-(4-fluoro-3-methylphenyl)-5-(2-((2-hydroxy-2-methylpropyl)amino)-2-oxoacetyl)-1,2-dimethyl-1H-pyrrole-3-carboxamide] | > 1000 nM | > 30000 nM
Cc1cc(NC(=O)c2c(C3CC3)c(C(=O)C(=O)N[C@H]3CC[C@@H](S(C)(=O)=O)CC3)n(C)c2C)ccc1F [Example 100, 4-cyclopropyl-N-(4-fluoro-3-methylphenyl)-1,2-dimethyl-5-(2-(((1s,4s)-4-(methylsulfonyl)cyclohexyl)amino)-2-oxoacetyl)-1H-pyrrole-3-carboxamide] | < 50 nM | > 30000 nM
Cc1cc(NC(=O)c2c(C3CC3)c(C(=O)C(=O)N[C@H](C)C(F)(F)F)n(C)c2C)ccc1F [Example 101, (R)-4-cyclopropyl-N-(4-fluoro-3-methylphenyl)-1,2-dimethyl-5-(2-oxo-2-((1,1,1-trifluoropropan-2-yl)amino)acetyl)-1H-pyrrole-3-carboxamide] | < 50 nM | > 30000 nM
